Broadly, the melting point is the temperature, or range, at which the solid turns liquid.

In data set [1] the test system is root meristem cells of Allium cepa. Briefly: In vitro antimitotic activity and cytogenetic analysis, Allium cepa meristem root model. Particulars: for Aberrant cells (%) ± SEM / Chromosome breaks (%) ± SEM / MNC (‰) ± SEM (micronuclei per 1,000 cells) / Polar deviations (%) ± SEM / Stickiness (%) ± SEM / MI (%) ± SEM (mitotic index): compounds 1 mg/mL, PC (EMS) 2 × 10^−2 M; for MI (%) ± SEM (mitotic index): lower MI = higher activity, negative control 6.22. Format: cell-based. How it is done:
Small bulbs (1.5–2.0 cm in diameter) of the common onion, A. cepa (2n = 16), were purchased from vendor at a local market. Prior to initiating the test, the outer scales of the bulbs and the dry bottom plate were removed without destroying the root primordia. The roots of A. cepa were grown in distilled water in Erlenmeyer flasks (200 mL capacity) under laboratory conditions (dark 24 °C). For each synthesized compound sample, after reaching a length of 3 cm (±0.5 cm), a series of six bulbs were placed in distilled water (pH 7.3) for 48 h and then onion roots were treated with the synthesized compound at 1 mg/mL concentrations of each tested compound. The test tubes were kept in an incubator at 22 ± 1 °C, and the test samples were changed daily at the same time. Several of the newly formed root tips were then cut from each bulb and examined for any visible morphological abnormalities. The bulbs with satisfactory root lengths (2–2.5 cm) were used in the study, while those with exceptionally long or short roots were discarded (on average 2–3 bulbs). Therefore, individual sets of five bulbs were used for each extract sample.
Distilled water (pH 7.3) was used as a negative control, and EMS (2 × 10^−2 M) used as a positive control mutagen (Fiskesjo, [1993], [1997]). After 24 h of exposure, several root tips were removed from the bulbs, fixed in 3:1 (v/v) ethanol (90 %)/glacial acetic acid (45 %) and stored overnight at 4 °C. The next day, they were placed in 70 % (v/v) aqueous alcohol and refrigerated until used. Allium roots were softened by digesting with HCl and rinsed the roots in water. After removing the water from the third rinse, the roots were covered with the orcein acetate stain. The roots were incubated in the stain for 12 min. During this time, the very tip of the root begins to turn red as the DNA stains the numerous small actively dividing cells at the tip. A root was transferred to the centre of a clean microscope slide, and a drop of water was added. Using a razor blade most of the unstained part of the root was cut off and discarded. The root tip was covered with a cover slip and then carefully pushed down on the cover slide with the wooden end of a dissecting probe. […] The root tip should spread out to a diameter about 0.5–1 cm. Five slides were prepared per bulb.
The following parameters were used for the determination of cytotoxicity and genotoxicity: • (i) the mitotic index (MI) was calculated as the ratio between the number of mitotic cells and the total number of cells scored and expressed as percentage using following formula as per standard procedures. Mitoticindex=Numberofdividingcells/Totalnumberofcells×100 • (ii) Chromatin aberrations (stickiness, breaks and polar deviation) were used as end points for the determination of cytogenetic effects, and micronuclei (MNC) were scored in interphase cells per 1,000 cells (‰ MNC) (Freshney, [2000]). • (iii) The most frequent abnormalities are shown in microphotographs. After 72 h of exposure to the test samples, the root lengths were measured and used as an index of general toxicity. The results for mitotic index and root length are expressed as percentage of the negative and positive controls. Visible morphological modifications, such as changes in root consistency and colour as well as the presence of swelling (c-tumours), hooks or twists in the roots, were also observed.

Data set [2] in a line: Superoxide anion radical scavenging (NBT/NADH/PMS). Format: biochemical. Particulars: Conc. ± SD; standard catechin; read-out: IC50 inhibitory concentration, Superoxide anion. How it is done:
Measurement of superoxide anion scavenging activity of the synthesized compound was taken based on the method described by Nishimiki et al. ([1972]) and slightly modified. […] The reaction mixture was incubated at 25 °C for 5 min, and the absorbance at 560 nm was measured against blank samples. Catechin was used as reference compound. All the experiments were performed in triplicate, and the results were averaged. The percentage of inhibition was determined by comparing the results of control and test samples. The IC50 (nM/mL) value are depicted in Table 1.

The nature of data set [3]: DPPH radical scavenging activity. Format: biochemical. Particulars: Conc. ± SD; standard ascorbic acid; read-out: IC50 inhibitory concentration, DPPH radical. How it is done:
Compounds of SC series were evaluated for their in vitro free radical scavenging activities by 2,2-diphenyl-1-picrylhydrazyl (DPPH) assay method (Blois, [1958]; Shishoo et al., [1999]; Chhajed et al., [2007]). To determine the free radical scavenging activity, a method based on the reduction of a methanolic solution of the coloured DPPH radical was used. To a set of test tubes containing methanol (3 mL), DPPH reagent (2 mg/mL) (50 μL) was added. The initial absorbance was measured. To these test tubes, methanolic solution of different test solutions (1 mg/mL) were added (10–50 μL). Ascorbic acid (0.5 mg/mL) was also added in the concentration of 10, 20, 30, 40, 50 and 100 μL. After 20 min, absorbance was recorded at 516 nm. The experiment was performed in triplicate. The percentage reduction in absorbance was calculated from the initial and final absorbance of each solution (Dhar and Taploo, [1982]).

The nature of data set [4]: Lipid peroxidation inhibitory activity (egg lecithin liposomes, TBA). It counts as biochemical. The following applies: Conc. ± SD; standard ascorbic acid; read-out: IC50 inhibitory concentration, Lipid peroxidation. How it is done: Egg lecithin (3 mg/mL phosphate buffer, pH 7.4) was sonicated in an ultrasonic sonicator for 10 min to ensure proper liposome formation. Test samples or standard, ascorbic acid (100 μL) of different concentrations (10, 20, 30, 40 50 and 100 μg/mL) was added to liposome mixture (1 mL); the control was without test sample. Lipid peroxidation was induced by adding ferric chloride (10 μL, 400 mM) and L-ascorbic acid (10 μL, 200 mM). After incubation for 1 h at 37 °C, the reaction was stopped by adding hydrochloric acid (2 mL, 0.25 N) containing trichloroacetic acid (150 mg/mL), thiobarbituric acid (3.75 mg/mL) and butylated hydroxy anisole (0.50 mg/mL). The reaction mixture was subsequently boiled for 15 min, cooled and centrifuged at 1,000 rpm for 15 min, and the absorbance of the supernatant was measured at 532 nm (Duh and Yen, [1997]). The % inhibition at different concentrations was calculated by the following formula %Inhibition=[1-(Vt/Vc)]×100 where V t = mean absorption of test compound, V c = mean absorption of control.
The IC50 (nM/mL) value was derived from the % inhibition at different concentrations.

Consider `O=C(NS(=O)(=O)c1nnc(N=Cc2ccccc2)s1)c1ccccc1` [Compound 9a, N-{[5-(Benzylidenamino)-1,3,4-thiadiazol-2-yl]sulphonyl} benzamide], for which the melting point lay in the range of 185 to 187 °C. In addition, in data set [1], the “Aberrant cells (%) ± SEM” value turned out to be 19.28 ± 5.22%, the “Chromosome breaks (%) ± SEM” value came out at 6.22 ± 1.02%, the “MNC (‰) ± SEM (micronuclei per 1,000 cells)” value was 0.34 ± 0.15 ‰ and the “Polar deviations (%) ± SEM” value stood at 8.62 ± 2.16%. Also, in data set [1], the “Stickiness (%) ± SEM” value is 6.64 ± 2.38% and the “MI (%) ± SEM (mitotic index)” value is listed as 3.22 ± 0.16%. Moreover, the IC50 in data set [2] stood at 152 ± 14.4 µM. In addition, the IC50 in data set [3] turned out to be 134 ± 12.9 µM. Also, the IC50 in data set [4] turned out to be 122 ± 18.6 µM.

Regarding `O=C(NS(=O)(=O)c1nnc(N=Cc2ccc(Cl)cc2)s1)c1ccccc1` [Compound 9b, N-({5-[(4-Chlorobenzylidene)amino]-1,3,4-thiadiazol-2-yl}sulfonyl)benzamide], the melting point is 212 to 214 °C. In addition, in data set [1], the “Aberrant cells (%) ± SEM” value turned out to be 24.64 ± 7.01%, the “Chromosome breaks (%) ± SEM” value came to 3.36 ± 0.57%, the “MNC (‰) ± SEM (micronuclei per 1,000 cells)” value is 0.42 ± 0.18 ‰ and the “Polar deviations (%) ± SEM” value came out at 7.32 ± 1.24%. In data set [1], the “Stickiness (%) ± SEM” value was found to be 9.12 ± 1.33% and the “MI (%) ± SEM (mitotic index)” value was 2.77 ± 0.19%. Besides, the IC50 in data set [2] came out at 76.3 ± 11.8 µM. The IC50 in data set [3] turned out to be 88.2 ± 11.1 µM. Further, the IC50 in data set [4] was found to be 133 ± 11.5 µM.

Regarding `COc1ccccc1C=Nc1nnc(S(=O)(=O)NC(=O)c2ccccc2)s1` [Compound 9c, N-({5-[(2-Methoxybenzylidene)amino]-1,3,4-thiadiazol-2-yl}sulfonyl)benzamide], in data set [1], the “Aberrant cells (%) ± SEM” value is listed as 38.54 ± 8.18%, the “MNC (‰) ± SEM (micronuclei per 1,000 cells)” value is 0.36 ± 0.14 ‰, the “Polar deviations (%) ± SEM” value is listed as 7.22 ± 2.61% and the “Stickiness (%) ± SEM” value turned out to be 28.04 ± 6.34%. Moreover, in data set [1], the “MI (%) ± SEM (mitotic index)” value is 0.53 ± 0.03%. Further, the IC50 in data set [2] is 128 ± 21.7 µM. Also, the IC50 in data set [3] came to 41.3 ± 4.23 µM. Moreover, the IC50 in data set [4] came out at 102 ± 14.5 µM.

On to `COc1ccc(C=Nc2nnc(S(=O)(=O)NC(=O)c3ccccc3)s2)cc1` [Compound 9d, N-({5-[(4-Methoxybenzylidene)amino]-1,3,4-thiadiazol-2-yl}sulfonyl)benzamide], for which the melting point is 215 to 217 °C. For the same compound, in data set [1], the “Aberrant cells (%) ± SEM” value is recorded as 25.33 ± 9.42%, the “Chromosome breaks (%) ± SEM” value is reported as 0.96 ± 0.46%, the “MNC (‰) ± SEM (micronuclei per 1,000 cells)” value is given as 0.51 ± 0.17 ‰ and the “Polar deviations (%) ± SEM” value is recorded as 9.15 ± 6.92%. In data set [1], the “Stickiness (%) ± SEM” value worked out at 14.48 ± 2.52% and the “MI (%) ± SEM (mitotic index)” value is on record as 2.34 ± 0.19%. Moreover, the IC50 in data set [2] worked out at 74.5 ± 8.3 µM. For the same compound, in data set [3], the IC50 is 63.6 ± 8.35 µM. In addition, the IC50 in data set [4] was determined as 164 ± 14.6 µM.

In turn, `O=C(NS(=O)(=O)c1nnc(N=Cc2ccc(O)cc2)s1)c1ccccc1` [Compound 9e, N-({5-[(4-Hydroxybenzylidene)amino]-1,3,4-thiadiazol-2-yl}sulfonyl)benzamide] came in with a melting point of 178 to 180 °C. In addition, in data set [1], the “Aberrant cells (%) ± SEM” value is 26.74 ± 6.56%, the “Chromosome breaks (%) ± SEM” value worked out at 2.72 ± 0.94%, the “MNC (‰) ± SEM (micronuclei per 1,000 cells)” value is recorded as 0.21 ± 0.06 ‰ and the “Polar deviations (%) ± SEM” value came to 8.41 ± 1.35%. Also, in data set [1], the “Stickiness (%) ± SEM” value is 9.88 ± 1.46% and the “MI (%) ± SEM (mitotic index)” value is given as 1.27 ± 0.11%. In addition, the IC50 in data set [2] was determined as 136 ± 22.5 µM. In data set [3], the IC50 is 107 ± 18.1 µM. For the same compound, the IC50 in data set [4] was 134 ± 14.7 µM.

Regarding `O=C(NS(=O)(=O)c1nnc(N=Cc2ccccc2O)s1)c1ccccc1` [Compound 9f, N-({5-[(2-Hydroxybenzylidene)amino]-1,3,4-thiadiazol-2-yl}sulfonyl)benzamide], the melting point is 220 to 222 °C. In data set [1] (after 72 h of treatment, negative control 3.93 cm), the average root length came to 1.06 cm. In addition, in data set [1], the “Aberrant cells (%) ± SEM” value was 33.41 ± 9.47%, the “Chromosome breaks (%) ± SEM” value worked out at 1.47 ± 0.13%, the “MNC (‰) ± SEM (micronuclei per 1,000 cells)” value was 0.39 ± 0.20 ‰ and the “Polar deviations (%) ± SEM” value came out at 7.33 ± 2.52%. Besides, the “Stickiness (%) ± SEM” value in data set [1] came out at 21.96 ± 7.22%. Also, the IC50 in data set [2] is 36.7 ± 14.4 µM. In data set [3], the IC50 amounted to 80.6 ± 11.4 µM. Besides, the IC50 in data set [4] was determined as 204 ± 20.1 µM.

The compound `COc1cc(C=Nc2nnc(S(=O)(=O)NC(=O)c3ccccc3)s2)ccc1O` [Compound 9g, N-({5-[(4-Hydroxy-3-methoxybenzylidene)amino]-1,3,4-thiadiazol-2-yl}sulfonyl)benzamide] had a melting point of 252 to 254 °C. In data set [1], the “Aberrant cells (%) ± SEM” value is 40.48 ± 12.94%, the “MNC (‰) ± SEM (micronuclei per 1,000 cells)” value is 0.48 ± 0.32 ‰, the “Polar deviations (%) ± SEM” value was determined as 10.26 ± 2.13% and the “Stickiness (%) ± SEM” value stood at 32.24 ± 6.92%. In addition, the “MI (%) ± SEM (mitotic index)” value in data set [1] is given as 0.41 ± 0.04%.

`CN(C)c1ccc(C=Nc2nnc(S(=O)(=O)NC(=O)c3ccccc3)s2)cc1` [Compound 9h, N-[(5-{[4-(Dimethylamino)benzylidene]amino}-1,3,4-thiadiazol-2-yl)sulfonyl]benzamide] gave a melting point of 236 to 238 °C. In data set [1], the “Aberrant cells (%) ± SEM” value came to 29.83 ± 5.03%, the “Chromosome breaks (%) ± SEM” value was found to be 2.43 ± 0.67%, the “MNC (‰) ± SEM (micronuclei per 1,000 cells)” value is listed as 0.31 ± 0.14 ‰ and the “Polar deviations (%) ± SEM” value came to 8.91 ± 1.56%. Moreover, in data set [1], the “Stickiness (%) ± SEM” value amounted to 16.50 ± 3.23% and the “MI (%) ± SEM (mitotic index)” value came out at 1.07 ± 0.13%.

These data come from publication PMC3973950, “Synthesis of 5-arylidine amino-1,3,4-thiadiazol-2-[(N-substituted benzyol)]sulphonamides endowed with potent antioxidants and anticancer activity induces growth inhibition in HEK293, BT474 and NCI-H226 cells” (Medicinal Chemistry Research, 2013).
